From US20260285855A1, “HETEROARYL DERIVATIVES AS DDRS INHIBITORS” (CHIESI FARMACEUTICI S.P.A., priority 2023, published 2026)

How the values were obtained:
DDR1 = target: T1, DDR1 (Homo sapiens, UniProt Q08345); test: LanthaScreen Europium Kinase Binding assay, DDR1; conditions: 5 nM DDR1, 20 nM Kinase Tracer 178, 1 h at rt; Ki from IC50 by Cheng-Prusoff; read-out: Ki DDR1
T1 construct: purchased Carna Biosciences
Procedure: (§1) DDR1 and DDR2 binding assays were performed using Life Technologies LanthaScreen™ Europium Kinase Binding assay. […] IC50 values were determined in GraphPad Prism 7.0 software, using 4 parameter model: log (inhibitor) vs. response. IC50 values were converted in Ki using the Cheng-Prusoff equation (Ki-IC50/(1+ [Tracer]/Kd).

DDR2 = target: T2, DDR2 (Homo sapiens, UniProt Q16832); test: LanthaScreen Europium Kinase Binding assay, DDR2; conditions: 5 nM DDR2, 10 nM Kinase Tracer 178, 1 h at rt; Ki from IC50 by Cheng-Prusoff; read-out: Ki DDR2
T2 construct: purchased Life Technologies
T2 sequence (Q16832 22-855): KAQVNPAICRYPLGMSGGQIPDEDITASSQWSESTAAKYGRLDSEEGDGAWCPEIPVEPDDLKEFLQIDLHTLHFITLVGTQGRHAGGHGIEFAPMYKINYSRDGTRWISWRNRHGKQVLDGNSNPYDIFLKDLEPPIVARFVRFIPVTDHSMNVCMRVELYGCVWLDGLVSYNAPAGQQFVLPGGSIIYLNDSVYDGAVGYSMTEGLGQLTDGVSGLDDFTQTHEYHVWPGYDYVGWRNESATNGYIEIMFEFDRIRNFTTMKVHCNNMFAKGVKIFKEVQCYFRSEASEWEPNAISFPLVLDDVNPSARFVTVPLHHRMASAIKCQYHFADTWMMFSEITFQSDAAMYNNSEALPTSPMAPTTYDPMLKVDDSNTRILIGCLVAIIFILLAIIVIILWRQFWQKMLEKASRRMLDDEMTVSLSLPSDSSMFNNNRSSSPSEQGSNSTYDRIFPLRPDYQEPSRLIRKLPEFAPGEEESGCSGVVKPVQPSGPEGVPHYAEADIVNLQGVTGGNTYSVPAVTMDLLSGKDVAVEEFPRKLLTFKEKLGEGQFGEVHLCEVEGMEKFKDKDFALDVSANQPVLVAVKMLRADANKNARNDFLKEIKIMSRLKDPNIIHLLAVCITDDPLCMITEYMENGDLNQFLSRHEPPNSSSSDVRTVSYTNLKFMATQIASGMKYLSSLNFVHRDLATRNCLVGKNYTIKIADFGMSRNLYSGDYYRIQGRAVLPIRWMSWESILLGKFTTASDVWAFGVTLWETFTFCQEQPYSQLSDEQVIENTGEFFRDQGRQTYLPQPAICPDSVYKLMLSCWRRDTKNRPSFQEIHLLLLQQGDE
Procedure: as §1

T1 sequence (Q08345 19-913): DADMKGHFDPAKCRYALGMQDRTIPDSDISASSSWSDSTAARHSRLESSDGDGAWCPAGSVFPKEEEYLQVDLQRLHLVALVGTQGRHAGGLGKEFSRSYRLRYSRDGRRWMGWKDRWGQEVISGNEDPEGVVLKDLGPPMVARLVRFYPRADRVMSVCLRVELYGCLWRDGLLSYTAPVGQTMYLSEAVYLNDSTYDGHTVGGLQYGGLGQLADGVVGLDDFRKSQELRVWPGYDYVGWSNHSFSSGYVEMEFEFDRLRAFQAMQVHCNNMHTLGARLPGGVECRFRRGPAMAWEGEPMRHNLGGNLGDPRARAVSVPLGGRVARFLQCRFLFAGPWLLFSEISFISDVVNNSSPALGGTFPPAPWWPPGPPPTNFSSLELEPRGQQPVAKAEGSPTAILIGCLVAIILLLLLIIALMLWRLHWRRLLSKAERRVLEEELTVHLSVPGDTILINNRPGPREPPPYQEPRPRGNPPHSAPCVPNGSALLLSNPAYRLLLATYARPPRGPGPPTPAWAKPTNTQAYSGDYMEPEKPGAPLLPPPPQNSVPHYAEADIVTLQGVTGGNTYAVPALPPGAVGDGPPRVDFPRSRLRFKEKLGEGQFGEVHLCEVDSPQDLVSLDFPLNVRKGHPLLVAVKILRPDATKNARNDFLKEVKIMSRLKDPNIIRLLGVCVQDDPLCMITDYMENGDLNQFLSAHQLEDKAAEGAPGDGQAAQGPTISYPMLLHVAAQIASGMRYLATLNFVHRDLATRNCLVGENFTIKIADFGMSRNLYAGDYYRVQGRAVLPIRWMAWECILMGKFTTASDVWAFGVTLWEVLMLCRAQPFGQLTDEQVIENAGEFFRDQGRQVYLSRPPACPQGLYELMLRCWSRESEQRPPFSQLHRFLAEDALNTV

Ki (DDR1) | Ki (DDR2) | SMILES
< 5 nM | 5 to 25 nM | Cc1cc(NC(=O)N(C)C2CC3(C2)CN(C(=O)c2ncnc4[nH]ccc24)C3)cc(C(F)(F)F)c1 [Example 268, 1-(2-(7H-pyrrolo[2,3-d]pyrimidine-4-carbonyl)-2-azaspiro[3.3]heptan-6-yl)-1-methyl-3-(3-methyl-5-(trifluoromethyl)phenyl)urea]
< 5 nM | < 5 nM | Cc1ccc(C(F)(F)F)cc1NC(=O)OC1CC2(C1)CN(C(=O)c1cnn3ccn(C)c13)C2 [Example 270, 2-(1-methyl-1H-imidazo[1,2-b]pyrazole-7-carbonyl)-2-azaspiro[3.3]heptan-6-yl(2-methyl-5-(trifluoromethyl)phenyl)carbamate]
< 5 nM | < 5 nM | Cn1ccn2ncc(C(=O)N3CC4(CC(OC(=O)Nc5cc(C(C)(C)C(F)(F)F)on5)C4)C3)c12 [Example 271, 2-(1-methyl-1H-imidazo[1,2-b]pyrazole-7-carbonyl)-2-azaspiro[3.3]heptan-6-yl(5-(1,1,1-trifluoro-2-methylpropan-2-yl)isoxazol-3-yl)carbamate]
< 5 nM | < 5 nM | O=C(Nc1cc(OC(F)(F)F)ccn1)OC1CC2(C1)CN(C(=O)c1cnn3ccsc13)C2 [Example 272, 2-(pyrazolo[5,1-b]thiazole-7-carbonyl)-2-azaspiro[3.3]heptan-6-yl(4-(trifluoromethoxy)pyridin-2-yl)carbamate]
< 5 nM | < 5 nM | O=C(Nc1cncc(C(F)(F)F)c1)OC1CC2(C1)CN(C(=O)c1cnn3ccsc13)C2 [Example 273, 2-(pyrazolo[5,1-b]thiazole-7-carbonyl)-2-azaspiro[3.3]heptan-6-yl(5-(trifluoromethyl)pyridin-3-yl)carbamate]
< 5 nM | 5 to 25 nM | Cn1ccn2ncc(C(=O)N3CC4(CC(CC(=O)Nc5cncc(C(F)(F)F)c5)C4)C3)c12 [Example 274, 2-(2-(1-methyl-1H-imidazo[1,2-b]pyrazole-7-carbonyl)-2-azaspiro[3.3]heptan-6-yl)-N-(5-(trifluoromethyl)pyridin-3-yl)acetamide]
< 5 nM | < 5 nM | O=C(CC1CC2(C1)CN(C(=O)c1cnn3ccsc13)C2)Nc1cncc(OC(F)(F)F)c1 [Example 275, 2-(2-(pyrazolo[5,1-b]thiazole-7-carbonyl)-2-azaspiro[3.3]heptan-6-yl)-N-(5-(trifluoromethoxy)pyridin-3-yl)acetamide]
< 5 nM | < 5 nM | Cn1ccn2ncc(C(=O)N3CC4(CC(CC(=O)Nc5cc(OC(F)(F)F)ccc5F)C4)C3)c12 [Example 276, N-(2-fluoro-5-(trifluoromethoxy)phenyl)-2-(2-(1-methyl-1H-imidazo[1,2-b]pyrazole-7-carbonyl)-2-azaspiro[3.3]heptan-6-yl)acetamide]
< 5 nM | 5 to 25 nM | Cn1ccn2ncc(C(=O)N3CC4(CC(CC(=O)Nc5cc(OC(F)(F)F)ccn5)C4)C3)c12 [Example 277, 2-(2-(1-methyl-1H-imidazo[1,2-b]pyrazole-7-carbonyl)-2-azaspiro[3.3]heptan-6-yl)-N-(4-(trifluoromethoxy)pyridin-2-yl)acetamide]
< 5 nM | 5 to 25 nM | Cc1ccc(OC(F)(F)F)cc1NC(=O)CC1CC2(C1)CN(C(=O)c1cnn3ccn(C)c13)C2 [Example 278, 2-(2-(1-methyl-1H-imidazo[1,2-b]pyrazole-7-carbonyl)-2-azaspiro[3.3]heptan-6-yl)-N-(2-methyl-5-(trifluoro-methoxy)phenyl)acetamide]
< 5 nM | < 5 nM | Cn1ccn2ncc(C(=O)N3CC4(CC(CC(=O)Nc5cc(C(F)(F)F)ccn5)C4)C3)c12 [Example 279, 2-(2-(1-methyl-1H-imidazo[1,2-b]pyrazole-7-carbonyl)-2-azaspiro[3.3]hepan-6-yl)-N-(4-(trifluoromethyl)pyridin-2-yl)acetamide]
< 5 nM | < 5 nM | Cc1ccc(OC(F)(F)F)cc1NC(=O)N(C)C1CC2(C1)CN(C(=O)c1ncnc3ccsc13)C2 [Example 280, 1-methyl-3-(2-methyl-5-(trifluoromethoxy)phenyl)-1-(2-(thieno[3,2-d]pyrimidine-4-carbonyl)-2-azaspiro[3.3]heptan-6-yl)urea]
< 5 nM | 5 to 25 nM | Cc1cc(NC(=O)N(C)C2CC3(C2)CN(C(=O)c2cnn4ccn(C)c24)C3)cc(OC(F)(F)F)c1 [Example 281, 1-methyl-1-(2-(1-methyl-1H-imidazo[1,2-b]pyrazole-7-carbonyl)-2-azaspiro[3.3]heptan-6-yl)-3-(3-methyl-5-(trifluoromethoxy)phenyl)urea]
< 5 nM | < 5 nM | CCc1ccc(C(F)(F)F)cc1NC(=O)NC1CC2(C1)CN(C(=O)c1cnn3ccn(C)c13)C2 [Example 282, 1-(2-ethyl-5-(trifluoromethyl)phenyl)-3-(2-(1-methyl-1H-imidazo[1,2-b]pyrazole-7-carbonyl)-2-azaspiro[3.3]heptan-6-yl)urea]
< 5 nM | 5 to 25 nM | Cc1c(F)cc(C(F)(F)F)cc1NC(=O)N(C)C1CC2(C1)CN(C(=O)c1cnn3ccn(C)c13)C2 [Example 283, 3-(3-fluoro-2-methyl-5-(trifluoromethyl)phenyl)-1-methyl-1-(2-(1-methyl-1H-imidazo[1,2-b]pyrazole-7-carbonyl)-2-azaspiro[3.3]heptan-6-yl)urea]
< 5 nM | 5 to 25 nM | CN(C(=O)Nc1cc(C#N)cc(C(F)(F)F)c1)C1CC2(C1)CN(C(=O)c1ncnc3[nH]ccc13)C2 [Example 284, 1-(2-(7H-pyrrolo[2,3-d]pyrimidine-4-carbonyl)-2-azaspiro[3.3]heptan-6-yl)-3-(3-cyano-5-(trifluoromethyl)phenyl)-1-methylurea]
< 5 nM | < 5 nM | CN(C(=O)Nc1cc(C(F)(F)F)ccc1Cl)C1CC2(C1)CN(C(=O)c1ncnc3[nH]ccc13)C2 [Example 285, 1-(2-(7H-pyrrolo[2,3-d]pyrimidine-4-carbonyl)-2-azaspiro[3.3]heptan-6-yl)-3-(2-chloro-5-(trifluoromethyl)phenyl)-1-methylurea]
< 5 nM | 5 to 25 nM | CN(C(=O)Nc1cc(Cl)cc(C(F)(F)F)c1)C1CC2(C1)CN(C(=O)c1ncnc3[nH]ccc13)C2 [Example 286, 1-(2-(7H-pyrrolo[2,3-d]pyrimidine-4-carbonyl)-2-azaspiro[3.3]heptan-6-yl)-3-(3-chloro-5-(trifluoromethyl)phenyl)-1-methylurea]
< 5 nM | 5 to 25 nM | COc1cc(NC(=O)N(C)C2CC3(C2)CN(C(=O)c2cnn4ccn(C)c24)C3)cc(C(F)(F)F)c1 [Example 287, 3-(3-methoxy-5-(trifluoromethyl)phenyl)-1-methyl-1-(2-(1-methyl-1H-imidazo[1,2-b]pyrazole-7-carbonyl)-2-azaspiro[3.3]heptan-6-yl)urea]
< 5 nM | 5 to 25 nM | CCOc1ccc(C(F)(F)F)cc1NC(=O)N(C)C1CC2(C1)CN(C(=O)c1cnn3ccn(C)c13)C2 [Example 288, 3-(2-ethoxy-5-(trifluoromethyl)phenyl)-1-methyl-1-(2-(1-methyl-1H-imidazo[1,2-b]pyrazole-7-carbonyl)-2-azaspiro[3.3]heptan-6-yl)urea]
< 5 nM | 5 to 25 nM | Cc1nc(NC(=O)N(C)C2CC3(C2)CN(C(=O)c2cnn4ccsc24)C3)cc(C(F)(F)F)n1 [Example 289, 1-methyl-3-(2-methyl-6-(trifluoromethyl)pyrimidin-4-yl)-1-(2-(pyrazolo[5,1-b]thiazole-7-carbonyl)-2-azaspiro[3.3]heptan-6-yl)urea]
5 to 25 nM | 25 to 100 nM | Cc1nc(NC(=O)N(C)C2CC3(C2)CN(C(=O)c2cnn4ccn(C)c24)C3)cc(C(F)(F)F)n1 [Example 290, 1-methyl-1-(2-(1-methyl-1H-imidazo[1,2-b]pyrazole-7-carbonyl)-2-azaspiro[3.3]heptan-6-yl)-3-(2-methyl-6-(trifluoromethyl)pyrimidin-4-yl)urea]
< 5 nM | 5 to 25 nM | CN(C(=O)Nc1cc(C(F)(F)F)cs1)C1CC2(C1)CN(C(=O)c1cnn3ccn(C)c13)C2 [Example 291, 1-methyl-1-(2-(1-methyl-1H-imidazo[1,2-b]pyrazole-7-carbonyl)-2-azaspiro[3.3]heptan-6-yl)-3-(4-(trifluoromethyl)thiophen-2-yl)urea]
